# Source: patent US8945596B2, “Antimicrobial composition” (Conopco, Inc., priority 2008, dated 2015)
# Assays:
# Format in all cases: cell-based
# [1] = tested on: Neisseria subflava ATCC 19243; assay: Oxoplate oxygen depletion growth assay; conditions: no oxygen depletion over 18 hours
# Description: (§1) The anti-bacterial activity of the composition of the invention against a commonly found Gram positive oral bacteria viz. Streptococcus mutans ATCC 25175 and a Gram negative oral bacteria Neisseria subflava ATCC 19243) was determined. This was investigated using Oxoplates. Oxoplates monitor oxygen depletion within the reaction system (containing bacteria, broth and actives).
# (§2) A Gram positive (Streptococcus mutans ATCC 25175) and a Gram negative (Neisseria subflava ATCC 19243) bacterium were selected for testing the active solutions. Both bacteria were grown on BHIS agar plates for 24 hours at 37° C./15% CO2, they were then suspended in PBS to a McFarland standard of 2 (˜6×10^8 cells).
# (§3) Each active was dissolved in 50% ethanol solutions for testing. All solutions were made at 10 times concentrated to allow for dilution in the plate. Reduced concentrations were used for N. subflava due to the greater sensitivity of this organism to biocides,
# (§4) The following components were placed into the wells of the Oxoplates, • 170 µl BHI broth • 20 µl test solution • 10 µl bacteria
# (§5) The broth was placed into the Oxoplate first, followed by the test solution, and then the bacterium. Water or 50% ethanol controls were also used in each plate. All solutions were tested in replicates of four. The plates were placed into the fluorescent plate reader, incubated at 37° C. and measured every 15 minutes for 18 hours. The sensors on the bottom of the wells were measured at 2 wavelengths, • Indicator (650/[…]) • Reference (590/540 nm).
# (§6) The oxygen concentration was calculated using these values and a calibration performed for maximum and minimum oxygen concentration. A graph was then plotted of the oxygen depletion curves over the 18 hour period, which was used to determine the level at which the bacteria start to deplete the oxygen.
# [2] = tested on: Klebsiella; assay: Viable bacteria remaining after 15 seconds of contact with the actives; conditions: 15 seconds contact, culture added 7.35
# Description: (§7) About 10^7 bacterial cells (E. coli ATCC 10536) were taken in a test tube and contacted with various compositions for a period of 15 seconds. Bacteria were taken out after 15 seconds of contact and presence of viable cells was determined by serial dilution and plating on agar plates. The data is presented in log (Viable E. Coli) which is the log10 of the number of viable E. Coli remaining after 15 seconds of contact. Thus if 10^4 remained, log (Viable E. Coli) is 4.
# (§8) The combination of thymol (0.2%) and terpineol (0.5%) was tested for its efficacy in inhibiting growth of various other bacteria after they are contacted with this combination for about 15 seconds. Similar experiments were carried out with another well known antibacterial active TCC (trichloro carbanilide). The experiments were carried out similar to those of Examples 1 to 3 and the data on the viable bacteria remaining after contact with the actives for 15 seconds is summarized in Table 3
# [3] = tested on: Salmonella; assay: as above; conditions: 15 seconds contact, culture added 7.63
# Description: as §7, §8
# [4] = tested on: Entereobacter; assay: as above; conditions: 15 seconds contact, culture added 6.87
# Description: as §7, §8
# [5] = tested on: Vibrio cholerae; assay: as above; conditions: 15 seconds contact, culture added 7.58
# Description: as §7, §8
# [6] = tested on: Streptococcus mutans ATCC 25175; assay: Oxoplate oxygen depletion growth assay; conditions: no oxygen depletion over 18 hours
# Description: as §1, §2, §3, §4, §5, §6
# [7] = tested on: E. coli ATCC 10536; assay: Bacterial kill in test tube after 15 seconds of contact, serial dilution and plating; conditions: log10 of viable E. coli remaining after 15 seconds of contact; about 10^7 cells initially; water as carrier
# Description: Compositions comprising each individual active and a combination were prepared with water as a carrier (details given in Table 1 below). Terpineol and thymol were obtained from […] aromas, India. […] The data is presented in log (Viable E. Coli) which is the log10 of the number of viable E. […] Eucalyptol and linalool were obtained from Fluka. […] The data in log (Viable E.
molecule,measurement,setting,value
"Cc1ccc(C(C)C)c(O)c1 [Example 28, Thymol]",Concentration of active (wt %) at no growth,[1]; thymol concentration,Thymol (0.02%) wt %
"O=C(Nc1ccc(Cl)cc1)Nc1ccc(Cl)c(Cl)c1 [0.2% TCC, trichloro carbanilide]",viable bacteria remaining,[2],7.28 Log (CFU/ml)
same,viable bacteria remaining,[3],7.33 Log (CFU/ml)
same,viable bacteria remaining,[4],6.87 Log (CFU/ml)
same,viable bacteria remaining,[5],7.20 Log (CFU/ml)
Terpineol [Example 24],Concentration of active (wt %) at no growth,[6]; terpineol concentration,Terpineol (0.4%) wt %
Terpineol [Example 2],Log (Viable E. coli),[7],6.3
Terpineol [Example 27],Concentration of active (wt %) at no growth,[1]; terpineol concentration,Terpineol (0.08%) wt %
"Cc1ccc(C(C)C)c(O)c1 [Example 25, Thymol]",Concentration of active (wt %) at no growth,[6]; thymol concentration,Thymol (0.08%) wt %
"Cc1ccc(C(C)C)c(O)c1 [Example 1, Thymol]",Log (Viable E. coli),[7],3.1
